Reference: ChEMBL document CHEMBL1697781, “Assessment of the health effects of chemicals in humans: II. Construction of an adverse effects database for QSAR modeling” (Curr Drug Discov Technol, 2004)

Legend:
Settings in all cases: human; call rule not given here
Hepatotoxicity [1] = test: FDA HLAED, liver enzyme composite activity
Hepatotoxicity [2] = test: FDA HLAED, alkaline phosphatase increase
Hepatotoxicity [3] = test: FDA HLAED, serum glutamic oxaloacetic transaminase (SGOT) increase
Hepatotoxicity [4] = test: FDA HLAED, serum glutamic pyruvic transaminase (SGPT) increase
Hepatotoxicity [5] = test: FDA HLAED, lactate dehydrogenase (LDH) increase
Hepatotoxicity [6] = test: FDA HLAED, gamma-glutamyl transferase (GGT) increase

| Compound | Composite Activity - Active (Hepatotoxicity [1]) | Composite Activity - Marginal (Hepatotoxicity [1]) | Composite Activity - Score (Hepatotoxicity [1]) | Alkaline Phosphatase Increase - Activity Score (Hepatotoxicity [2]) | Alkaline Phosphatase Increase - Index Value (Hepatotoxicity [2]) | Alkaline Phosphatase Increase - Number of Reports (Hepatotoxicity [2]) | SGOT Increase - Activity Score (Hepatotoxicity [3]) | SGOT Increase - Index Value (Hepatotoxicity [3]) | SGOT Increase - Number of Reports (Hepatotoxicity [3]) | SGPT Increase - Activity Score (Hepatotoxicity [4]) | SGPT Increase - Index Value (Hepatotoxicity [4]) | SGPT Increase - Number of Reports (Hepatotoxicity [4]) | LDH Increase - Activity Score (Hepatotoxicity [5]) | LDH Increase - Index Value (Hepatotoxicity [5]) | LDH Increase - Number of Reports (Hepatotoxicity [5]) | GGT Increase - Activity Score (Hepatotoxicity [6]) | GGT Increase - Index Value (Hepatotoxicity [6]) | GGT Increase - Number of Reports (Hepatotoxicity [6]) |
| --- | --- | --- | --- | --- | --- | --- | --- | --- | --- | --- | --- | --- | --- | --- | --- | --- | --- | --- |
| NYSTATIN | 0 | 0 | Inactive | Inactive | 0.3 | < 4 | Inactive | 0 | < 4 | Inactive | 0 | < 4 | Inactive | 0 | < 4 | Inactive | 0 | < 4 |
| Nc1nc(O)c2ncn(COC(CO)CO)c2n1 [GANCICLOVIR] | 1 | 0 | Inactive | Active | 4.2 | >= 4 | Inactive | 2.7 | >= 4 | Inactive | 2.3 | >= 4 | Inactive | 1.9 | >= 4 | Inactive | 0.8 | < 4 |
| C[C@]12CC[C@@H]3c4ccc(OC(=O)c5ccccc5)cc4CC[C@H]3[C@@H]1CC[C@@H]2O [ESTRADIOL BENZOATE] | 0 | 0 | Inactive | Inactive | 1.5 | >= 4 | Inactive | 2.8 | >= 4 | Inactive | 2.1 | >= 4 | Inactive | 1.2 | >= 4 | Inactive | 0.3 | < 4 |
| CC1(C)O[C@@H]2[C@@H](CO[C@@]3(COS(N)(=O)=O)OC(C)(C)O[C@@H]23)O1 [TOPIRAMATE] | 0 | 0 | Inactive | Inactive | 3.5 | < 4 | Inactive | 0 | < 4 | Inactive | 0 | < 4 | Inactive | 0 | < 4 | Inactive | 0 | < 4 |
| CO/N=C(\C(=O)N[C@@H]1C(=O)N2C(C(=O)OC(C)OC(C)=O)=C(COC(N)=O)CS[C@H]12)c1ccco1 (stereo partly specified) [CEFUROXIME AXETIL] | 0 | 0 | Inactive | Inactive | 0 | < 4 | Inactive | 0 | < 4 | Inactive | 0 | < 4 | Inactive | 0 | < 4 | Inactive | 0 | < 4 |
| Nc1cc(Cl)c(N=C2NCCN2)c(Cl)c1 [APRACLONIDINE] | 0 | 0 | Inactive | Inactive | 0 | < 4 | Inactive | 0 | < 4 | Inactive | 0 | < 4 | Inactive | 0 | < 4 | Inactive | 0 | < 4 |
| CC(=O)OCC1=C(C(=O)O)N2C(=O)[C@@H](NC(=O)CSc3ccncc3)[C@H]2SC1 [CEPHAPIRIN] | 0 | 0 | Inactive | Inactive | 0 | < 4 | Inactive | 0 | < 4 | Inactive | 0 | < 4 | Inactive | 0 | < 4 | Inactive | 0 | < 4 |
| N=C(N)N/N=C/c1c(Cl)cccc1Cl [GUANABENZ] | 0 | 0 | Inactive | Inactive | 0 | < 4 | Inactive | 0.9 | < 4 | Inactive | 0.6 | < 4 | Inactive | 0.3 | < 4 | Inactive | 0 | < 4 |
| CC[C@H]1OC(=O)[C@H](C)[C@@H](O[C@H]2C[C@@](C)(OC)[C@@H](O)[C@H](C)O2)[C@H](C)[C@@H](O[C@@H]2O[C@H](C)C[C@H](N(C)C)[C@H]2O)[C@](C)(O)C[C@@H](C)CN(C)[C@H](C)[C@@H](O)[C@]1(C)O [AZITHROMYCIN] | 0 | 0 | Inactive | Inactive | 1 | >= 4 | Inactive | 2.9 | >= 4 | Inactive | 2.3 | >= 4 | Inactive | 0.8 | >= 4 | Inactive | 1 | >= 4 |
| CCOC(=O)[C@H](CCc1ccccc1)N[C@@H](C)C(=O)N1Cc2ccccc2C[C@H]1C(=O)O | 0 | 0 | Inactive | Inactive | 1.4 | >= 4 | Inactive | 1.1 | >= 4 | Inactive | 1.2 | >= 4 | Inactive | 0.4 | < 4 | Inactive | 1.4 | >= 4 |
| Nc1nc(Cl)nc2c1ncn2[C@H]1C[C@H](O)[C@@H](CO)O1 [CLADRIBINE] | 0 | 0 | Inactive | Inactive | 16.2 | < 4 | Inactive | 16.2 | < 4 | Inactive | 16.2 | < 4 | Inactive | 0 | < 4 | Inactive | 8.1 | < 4 |
| Cc1cccc(C)c1NC(=O)C(C)N (stereo unspecified) [TOCAINIDE] | 0 | 1 | Inactive | Inactive | 1.7 | >= 4 | Marginally Active | 3.5 | >= 4 | Inactive | 2.2 | >= 4 | Inactive | 1.7 | >= 4 | Inactive | 0 | < 4 |
